Target: T1, PHKG1 (Homo sapiens, UniProt Q16816)
T1 construct: purchased Thermo Fisher Scientific (Life Technologies) SelectScreen
Assay: SelectScreen Z'LYTE
Assay type: biochemical
How it was run: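 Percent values come from Thermo SelectScreen profiling of NU5455, combining activity and binding assays. CSF1R was run in Z'LYTE format at Km app ATP, and CAMK1 in Adapta format with ATP listed at 10.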

T1 sequence (Q16816 whole entry): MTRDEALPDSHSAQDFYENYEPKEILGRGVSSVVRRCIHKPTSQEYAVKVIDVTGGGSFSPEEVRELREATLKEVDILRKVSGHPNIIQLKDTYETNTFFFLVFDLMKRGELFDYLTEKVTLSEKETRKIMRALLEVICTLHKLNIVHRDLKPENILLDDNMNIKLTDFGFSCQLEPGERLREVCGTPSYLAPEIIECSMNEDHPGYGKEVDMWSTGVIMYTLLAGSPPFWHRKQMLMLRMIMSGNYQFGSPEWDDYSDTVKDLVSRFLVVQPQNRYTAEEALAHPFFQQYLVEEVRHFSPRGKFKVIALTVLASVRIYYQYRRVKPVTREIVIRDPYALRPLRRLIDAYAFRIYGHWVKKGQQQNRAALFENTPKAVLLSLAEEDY

Q: For CN(C(=O)CN1CCOCC1)c1ccc2sc3c(-c4cccc5c(=O)cc(N6CC7CCC(C6)O7)oc45)cccc3c2c1 [NU5455], which inhibition at 1 µM is on record?
A: -5%

Reference: PMC6934184, “Selective DNA-PKcs inhibition extends the therapeutic index of localized radiotherapy and chemotherapy” (The Journal of Clinical Investigation, 2019)
